Assay results: patent US6706664B1, “Benzoxazole compounds, process for the preparation thereof and herbicides” (UBE Industries, Ltd., priority 1999, dated 2004)

Columns and labels:
Assay in all cases: Soil treatment test for upland field
Parameters in all cases: key: 0: normal development; 1: Less damaged; 2: Slightly damaged; 3: Moderately damaged; 4: Severely damaged; 5: All killed
Conditions in all cases: 500 g/ha, glass house 25° C., 3 weeks
[1] = tested on: corn; format: in vivo
Text: (§1) (0: normal development, 1: Less damaged, 2: Slightly damaged, 3: Moderately damaged, 4: Severely damaged, 5: All killed).
(§2) Wagner pots, each having an area of 1/5000 are, were packed with Ube soil (alluvial soil), and then each seed of corn, soybean, cotton, wheat, solgum, sugar beat, Large crabgrass, barnyardgrass, green foxtail, blackgrass, annual bluegrass, common lambsquartes, livid amaranth and velvetleaf were planted and covered with soil.
(§3) Each wettable powder of the desired compounds (I) shown in Table 1 prepared in accordance with Example 2 was diluted with water containing a surfactant (0.05%) and uniformly sprayed on the surface of each soil so that an effective concentration of the compound (I) in each herbicide became 500 g/ha. These plants were controlled in a glass house at an average temperature of 25° C. for 3 weeks, and then herbicidal effects thereof were investigated.
(§4) The herbicidal effects were evaluated according to the evaluation method described in the above (1).

[2] = tested on: cotton; format: in vivo
Text: as §1, §2, §3, §4

[3] = tested on: solgum; format: in vivo
Text: as §1, §2, §3, §4

[4] = tested on: soybean; format: in vivo
Text: as §1, §2, §3, §4

[5] = tested on: sugar beat; format: in vivo
Text: as §1, §2, §3, §4

[6] = tested on: wheat; format: in vivo
Text: as §1, §2, §3, §4

[7] = tested on: Large crabgrass; format: in vivo, Digitaria adscendens
Text: as §1, §2, §3, §4

[8] = tested on: green foxtail; format: in vivo, Setaria viridis
Text: as §1, §2, §3, §4

[9] = tested on: annual bluegrass; format: in vivo, Poa annua
Text: as §1, §2, §3, §4

[10] = tested on: common lambsquartes; format: in vivo, Chenopodium album
Text: as §1, §2, §3, §4

[11] = tested on: livid amaranth; format: in vivo, Amaranthus lividus
Text: as §1, §2, §3, §4

[12] = tested on: barnyardgrass; format: in vivo, Echinochloa crusgalli
Text: as §1, §2, §3, §4

[13] = tested on: velvetleaf; format: in vivo, Abutilon theophrasti
Text: as §1, §2, §3, §4

[14] = tested on: blackgrass; format: in vivo, Alopecurus aegualis
Text: as §1, §2, §3, §4

| SMILES | Effects Corn [1] | Effects Cotton [2] | Effects Solgum [3] | Effects Soybean [4] | Effects Sugar beat [5] | Effects Wheat [6] | Effects Large crabgrass [7] | Effects Green foxtail [8] | Effects Annual bluegrass [9] | Effects Common lambsquarters [10] | Effects Livid amaranth [11] | Effects Barnyardgrass [12] | Effects Velvetleaf [13] | Effects Blackgrass [14] |
| --- | --- | --- | --- | --- | --- | --- | --- | --- | --- | --- | --- | --- | --- | --- |
| CCC(Oc1ccc(F)c(C(F)(F)F)c1)c1nc2ccc([N+](=O)[O-])cc2o1 (centres unmarked) [Compound 39] | 0 | 1 | 0 | 0 | 2 | 0 | 4 | 4 | 4 | 3 | 5 |  |  |  |
| CCC(Oc1cccc(C(F)(F)F)c1)c1nc2ccc(C(F)(F)F)cc2o1 (centres unmarked) [Compound 94] | 0 |  | 0 | 0 | 2 | 0 | 5 | 4 | 1 | 1 | 5 | 3 | 0 |  |
| CCC(Oc1cccc(C(F)(F)F)c1)c1nc2cc(I)ccc2o1 (centres unmarked) [Compound 172] | 0 | 0 | 0 | 0 | 0 | 0 | 5 | 5 | 3 |  | 5 |  |  | 1 |
| CCC(Oc1ccc(F)c(C(F)(F)F)c1)c1nc2cc(S(C)(=O)=O)ccc2o1 (centres unmarked) [Compound 215] | 0 | 1 | 0 | 0 | 5 | 0 | 5 | 4 | 3 | 4 | 5 |  | 5 |  |
| CCC(Oc1cccc(C(F)(F)F)c1)c1nc2cc(S(C)(=O)=O)ccc2o1 (centres unmarked) [Compound 216] | 0 | 0 | 0 | 0 | 5 | 0 | 4 | 5 | 2 | 5 | 5 | 3 | 3 |  |
| CCC(Oc1ccc(F)c(C(F)(F)F)c1)c1nc2cc(Cl)c([N+](=O)[O-])cc2o1 (centres unmarked) [Compound 334, 1-(5-chloro-6-nitrobenzoxazol-2-yl)-1-(4-fluoro-3-(trifluoromethyl)phenoxy)propane] | 0 | 1 | 1 | 0 | 3 | 2 | 5 | 5 | 4 | 2 | 5 | 3 |  | 4 |
| CCC(Oc1ccc(Cl)c(C(F)(F)F)c1)c1nc2cc([N+](=O)[O-])ccc2o1 (centres unmarked) [Compound 432] | 0 | 0 | 2 | 0 | 5 | 0 | 5 | 5 | 5 | 3 | 5 | 4 | 2 | 3 |
| CCC(Oc1cccc(C#N)c1)c1nc2cc(Cl)c(C)cc2o1 (centres unmarked) [Compound 481] | 0 | 0 | 0 | 0 | 3 | 0 | 5 | 4 | 2 | 2 | 4 |  | 3 |  |
| CCCC(Oc1cccc(C#N)c1)c1nc2cc(Cl)c(C)cc2o1 (centres unmarked) [Compound 484] | 1 | 0 | 0 | 0 | 5 | 0 | 5 | 5 | 5 | 5 | 5 |  | 5 |  |
| CCC(Oc1ccc(F)c(C(F)(F)F)c1)c1nc2cc(S(C)(=O)=O)c(C)cc2o1 (centres unmarked) [Compound 487] | 0 | 0 | 0 | 0 | 5 | 0 | 5 | 3 | 4 | 4 | 5 | 2 | 3 |  |
| CCC(Oc1cccc(C#N)c1)c1nc2cc(S(C)(=O)=O)ccc2o1 (centres unmarked) [Compound 507] | 0 | 0 | 0 | 0 | 0 | 0 |  | 3 |  | 5 | 5 |  |  |  |
| CCCC(Oc1cccc(C#N)c1)c1nc2cc(S(C)(=O)=O)ccc2o1 (centres unmarked) [Compound 508] | 0 | 0 | 0 | 0 | 4 | 0 | 4 | 5 | 2 | 3 | 5 |  | 3 |  |
| CCC(Oc1ccc(Cl)c(C#N)c1)c1nc2cc(S(C)(=O)=O)ccc2o1 (centres unmarked) [Compound 509] | 0 | 0 | 0 | 0 | 5 | 0 | 2 | 3 |  | 5 | 5 |  | 3 |  |
